According to patent US20060069132A1, “Azolecarboxamide herbicides” (priority 2004, published 2006):

Experiments:
[1] = test system: cocklebur; assay: Test C pre-/postemergence herbicide test; type: in vivo, Xanthium strumarium; settings: for Plant response rating, Cocklebur: preemergence
Summary of the method: (§1)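 Pre- and postemergence application, solvent/surfactant formulation; post at 1- to 4-leaf stage (2–18 cm). Greenhouse 12–14 d. Visual rating vs controls, 0 = no effect, 100 = complete control.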

[2] = test system: velvetleaf; assay: Test C pre-/postemergence herbicide test; type: in vivo, Abutilon theophrasti; settings: preemergence
Summary of the method: as §1

[3] = test system: smallflower umbrella sedge; assay: Test C flooded paddy test; type: in vivo, Cyperus difformis
[4] = test system: pigweed; assay: Test C pre-/postemergence herbicide test; type: in vivo, Amaranthus retroflexus; settings: preemergence
Summary of the method: as §1

[5] = test system: yellow nutsedge; assay: Test C pre-/postemergence herbicide test; type: in vivo, Cyperus esculentus; settings: preemergence
Summary of the method: as §1

[6] = test system: rice; assay: Test B pre-/postemergence herbicide test; type: in vivo, Oryza sativa; settings: 0 = no effect, 100 = complete control, preemergence
Summary of the method: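 Formulation: non-phytotoxic solvent mix with surfactant. Timing: preemergence on seed and postemergence on 2–18 cm plants, applied concurrently. Readout after 13–15 d greenhouse: visual 0–100 control rating against controls.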

[7] = test system: giant foxtail; assay: Test C pre-/postemergence herbicide test; type: in vivo, Setaria faberi; settings: preemergence
Summary of the method: as §1

[8] = test system: common (oilseed) sunflower; assay: Test C pre-/postemergence herbicide test; type: in vivo, Helianthus annuus; settings: preemergence
Summary of the method: as §1

[9] = test system: barnyardgrass; assay: Test C flooded paddy test; type: in vivo, Echinochloa crus-galli
Summary of the method: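 Greenhouse test with a 12–14 day hold after application and visual comparison with controls. Emerged plants were 1- to 4-leaf stage (2–18 cm) when sprayed postemergence, and the paddy barnyardgrass was at 2 leaves under flooded conditions. 100 = complete control.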

[10] = test system: morningglory; assay: Test C pre-/postemergence herbicide test; type: in vivo, Ipomoea coccinea; parameters: key to Plant response rating, Morningglory: 0 = no effect, 100 = complete control; settings: preemergence
Summary of the method: as §1

[11] = test system: bermudagrass; assay: Test C pre-/postemergence herbicide test; type: in vivo, Cynodon dactylon; settings: for Plant response rating, Bermudagrass: preemergence
Summary of the method: as §1

[12] = test system: soybean; assay: Test C pre-/postemergence herbicide test; type: in vivo, Glycine max; settings: preemergence
Summary of the method: as §1

[13] = 125 g ai/ha, scale 0 (no effect) to 100 (complete control), visual, 12 to 14 days
[14] = Preemergence, 500 g ai/ha, scale 0 to 100, 0 no effect, 100 complete control
[15] = 500 g ai/ha, scale 0 to 100 (0 no effect, 100 complete control), visual, 12 to 14 days
[16] = 125 g ai/ha, scale 0 to 100 (0 no effect, 100 complete control)
[17] = 250 g ai/ha, scale of 0 to 100, 0 is no effect, 100 is complete control
[18] = 500 g ai/ha, visual rating after 12 to 14 days, scale 0 to 100 (0 no effect, 100 complete control)

In the case of `CCN1N=C(C(C)(C)C)CC1C(=O)Nc1cc(C(=O)N2CCCC2)ccc1F` (racemic) [Compound 309], the “Plant response rating, Cocklebur” value ([1]; 62 g ai/ha, scale 0 to 100) is reported as 0, the “Plant response rating, Cocklebur” value [1, 13] is reported as 10 and the “Plant response rating, Cocklebur” value ([1]; 250 g ai/ha, scale 0-100) is reported as 60. The “Cocklebur plant response rating” value [1, 14] was 60, the “Plant response rating, Velvetleaf” value ([2]; 62 g ai/ha, scale 0 to 100) was 5 and the “Plant response rating, Velvetleaf” value ([2]; 250 g ai/ha, scale 0-100) was 75. For the same compound, the “Plant response rating, Velvetleaf” value [2, 15] was 100, the “Sedge, Umbrella plant response rating” value ([3]; 62 g ai/ha, scale 0 to 100) was 80 and the “Sedge, Umbrella plant response rating” value [3, 16] was 80. The “Sedge, Umbrella plant response rating” value [3, 17] was 80, the “Plant response rating, Sedge, Umbrella” value [3, 18] was 80 and the “Plant response rating, Pigweed” value ([4]; 62 g ai/ha, scale 0 to 100) was 80. For the same compound, the “Plant response rating, Pigweed” value [4, 13] was 100, the “Plant response rating, Pigweed” value ([4]; 250 g ai/ha, scale 0-100) was 100 and the “Plant response rating, Pigweed” value [4, 15] was 100. The “Plant response rating, Nutsedge, Yellow” value ([5]; 62 g ai/ha, scale 0 to 100) was 5, the “Plant response rating, Nutsedge, Yellow” value [5, 13] was 30 and the “Plant response rating, Nutsedge, Yellow” value ([5]; 250 g ai/ha, scale 0-100) was 45. The “Plant response rating, Nutsedge, Yellow” value [5, 15] was 60, the “Rice plant response rating (0 to 100 scale)” value ([6]; 125 g ai/ha) was 70 and the “Plant response rating, Rice” value ([6]; 500 g ai/ha, visual rating) was 90. For the same compound, the “Plant response rating, Foxtail, Giant” value ([7]; 62 g ai/ha, scale 0 to 100) was 70, the “Plant response rating, Foxtail, Giant” value [7, 13] was 80 and the “Plant response rating, Foxtail, Giant” value ([7]; 250 g ai/ha, scale 0-100) was 90. The “Plant response rating, Foxtail, Giant” value [7, 15] was 100, the “Plant response rating, Sunflower” value ([8]; 62 g ai/ha, scale 0 to 100) was 0 and the “Plant response rating, Sunflower” value ([8]; 250 g ai/ha, scale 0-100) was 5. The “Plant response rating, Sunflower” value [8, 15] was 60, the “Barnyardgrass plant response rating” value ([9]; 62 g ai/ha, scale 0 to 100 (0 no effect, 100 complete control)) was 50 and the “Barnyardgrass plant response rating” value [9, 16] was 60. For the same compound, the “Barnyardgrass plant response rating” value [9, 17] was 85, the “Plant response rating, Barnyardgrass” value [9, 18] was 90 and the “Plant response rating, Morningglory” value ([10]; 62 g ai/ha, scale 0 to 100) was 0. For the same compound, the “Plant response rating, Morningglory” value [10, 13] was 5, the “Plant response rating, Morningglory” value ([10]; 250 g ai/ha, scale 0-100) was 5 and the “Plant response rating, Morningglory” value [10, 15] was 40. For the same compound, the “Plant response rating, Bermudagrass” value ([11]; 62 g ai/ha, scale 0 to 100, 0 no effect, 100 complete control) was 90, the “Plant response rating, Bermudagrass” value [11, 13] was 90 and the “Plant response rating, Bermudagrass” value ([11]; 250 g ai/ha, scale 0-100) was 95. For the same compound, the “Bermudagrass plant response rating” value [11, 14] was 100, the “Plant response rating, Soybean” value ([12]; 62 g ai/ha, scale 0 to 100) was 20 and the “Plant response rating, Soybean” value ([12]; 250 g ai/ha, scale 0-100) was 80. For the same compound, the “Plant response rating, Soybean” value [12, 15] was 80.
